# Measured values published in the NIST ThermoML archive (doi:10.1016/j.fluid.2016.09.021).
# ± gives the expanded uncertainty stated by the source.
# Conditions: Liquid, Vibrating tube method
smiles,measurement,setting,value
CCCCCCC [heptane],mass density,"293 K, 2100 kPa",687.2 ± 2 kg/m3
same,mass density,"293 K, 3000 kPa",688.1 ± 2 kg/m3
same,mass density,"293 K, 4000 kPa",688.9 ± 2 kg/m3
same,mass density,"293 K, 5000 kPa",689.8 ± 2 kg/m3
same,mass density,"293 K, 10000 kPa",694 ± 2 kg/m3
same,mass density,"293 K, 20000 kPa",701.8 ± 2 kg/m3
same,mass density,"293 K, 30000 kPa",708.7 ± 2.1 kg/m3
same,mass density,"293 K, 40000 kPa",714.8 ± 2.1 kg/m3
same,mass density,"293 K, 49900 kPa",720.8 ± 2.1 kg/m3
same,mass density,"293 K, 59900 kPa",726.4 ± 2.2 kg/m3
same,mass density,"293 K, 69900 kPa",731.6 ± 2.2 kg/m3
same,mass density,"293 K, 79900 kPa",736.8 ± 2.2 kg/m3
same,mass density,"293 K, 89900 kPa",741.5 ± 2.3 kg/m3
same,mass density,"293 K, 99900 kPa",746.1 ± 2.3 kg/m3
same,mass density,"293 K, 109900 kPa",750.6 ± 2.3 kg/m3
same,mass density,"293 K, 119900 kPa",754.9 ± 2.4 kg/m3
same,mass density,"293 K, 129900 kPa",759.2 ± 2.4 kg/m3
same,mass density,"293 K, 134900 kPa",761.2 ± 2.4 kg/m3
same,mass density,"293 K, 137400 kPa",762.2 ± 2.4 kg/m3
same,mass density,"313 K, 2100 kPa",671.9 ± 2 kg/m3
same,mass density,"313 K, 3000 kPa",672.9 ± 2 kg/m3
same,mass density,"313 K, 4000 kPa",673.9 ± 2 kg/m3
same,mass density,"313 K, 5000 kPa",674.8 ± 2 kg/m3
same,mass density,"313 K, 10000 kPa",679.4 ± 2 kg/m3
same,mass density,"313 K, 20000 kPa",688 ± 2.1 kg/m3
same,mass density,"313 K, 30000 kPa",695.4 ± 2.1 kg/m3
same,mass density,"313 K, 40000 kPa",702.2 ± 2.1 kg/m3
same,mass density,"313 K, 49900 kPa",708.5 ± 2.1 kg/m3
same,mass density,"313 K, 59900 kPa",714.3 ± 2.2 kg/m3
same,mass density,"313 K, 69900 kPa",720 ± 2.2 kg/m3
same,mass density,"313 K, 79900 kPa",725.2 ± 2.2 kg/m3
same,mass density,"313 K, 89900 kPa",730.3 ± 2.3 kg/m3
same,mass density,"313 K, 99900 kPa",735.1 ± 2.3 kg/m3
same,mass density,"313 K, 109900 kPa",739.9 ± 2.3 kg/m3
same,mass density,"313 K, 119900 kPa",744.3 ± 2.4 kg/m3
same,mass density,"313 K, 129900 kPa",748.7 ± 2.4 kg/m3
same,mass density,"313 K, 134900 kPa",751 ± 2.4 kg/m3
same,mass density,"313 K, 137400 kPa",751.9 ± 2.5 kg/m3
same,mass density,"333 K, 2100 kPa",654.8 ± 2 kg/m3
same,mass density,"333 K, 3000 kPa",656 ± 2 kg/m3
same,mass density,"333 K, 4000 kPa",657.7 ± 2 kg/m3
same,mass density,"333 K, 5000 kPa",658.4 ± 2 kg/m3
same,mass density,"333 K, 10000 kPa",663.9 ± 2 kg/m3
same,mass density,"333 K, 20000 kPa",673.8 ± 2.1 kg/m3
same,mass density,"333 K, 30000 kPa",682.3 ± 2.1 kg/m3
same,mass density,"333 K, 40000 kPa",689.5 ± 2.1 kg/m3
same,mass density,"333 K, 49900 kPa",696.5 ± 2.1 kg/m3
same,mass density,"333 K, 59900 kPa",703.1 ± 2.2 kg/m3
same,mass density,"333 K, 69900 kPa",708.9 ± 2.2 kg/m3
same,mass density,"333 K, 79900 kPa",714.5 ± 2.2 kg/m3
same,mass density,"333 K, 89900 kPa",720 ± 2.3 kg/m3
same,mass density,"333 K, 99900 kPa",725.2 ± 2.3 kg/m3
same,mass density,"333 K, 109900 kPa",729.8 ± 2.4 kg/m3
same,mass density,"333 K, 119900 kPa",734.7 ± 2.4 kg/m3
same,mass density,"333 K, 129900 kPa",739.3 ± 2.5 kg/m3
same,mass density,"333 K, 134900 kPa",741.4 ± 2.5 kg/m3
same,mass density,"333 K, 137400 kPa",742.6 ± 2.5 kg/m3
same,mass density,"353 K, 2100 kPa",636.1 ± 2 kg/m3
same,mass density,"353 K, 3000 kPa",637.6 ± 2 kg/m3
same,mass density,"353 K, 4000 kPa",639.1 ± 2 kg/m3
same,mass density,"353 K, 5000 kPa",640.4 ± 2 kg/m3
same,mass density,"353 K, 10000 kPa",647.1 ± 2 kg/m3
same,mass density,"353 K, 20000 kPa",658.5 ± 2.1 kg/m3
same,mass density,"353 K, 30000 kPa",668 ± 2.1 kg/m3
same,mass density,"353 K, 40000 kPa",676.7 ± 2.1 kg/m3
same,mass density,"353 K, 49900 kPa",684.5 ± 2.1 kg/m3
same,mass density,"353 K, 59900 kPa",691.3 ± 2.2 kg/m3
same,mass density,"353 K, 69900 kPa",697.9 ± 2.2 kg/m3
same,mass density,"353 K, 79900 kPa",703.8 ± 2.3 kg/m3
same,mass density,"353 K, 89900 kPa",709.7 ± 2.3 kg/m3
same,mass density,"353 K, 99900 kPa",715 ± 2.3 kg/m3
same,mass density,"353 K, 109900 kPa",720.3 ± 2.4 kg/m3
same,mass density,"353 K, 119900 kPa",725.3 ± 2.4 kg/m3
same,mass density,"353 K, 129900 kPa",730.1 ± 2.5 kg/m3
same,mass density,"353 K, 134900 kPa",732.4 ± 2.5 kg/m3
same,mass density,"353 K, 137400 kPa",733.5 ± 2.5 kg/m3
same,mass density,"373 K, 2100 kPa",616.9 ± 2 kg/m3
same,mass density,"373 K, 3000 kPa",618.6 ± 2 kg/m3
same,mass density,"373 K, 4000 kPa",620.3 ± 2 kg/m3
same,mass density,"373 K, 5000 kPa",622 ± 2 kg/m3
same,mass density,"373 K, 10000 kPa",629.9 ± 2 kg/m3
same,mass density,"373 K, 20000 kPa",643.2 ± 2.1 kg/m3
same,mass density,"373 K, 30000 kPa",654.1 ± 2.1 kg/m3
same,mass density,"373 K, 40000 kPa",663.6 ± 2.1 kg/m3
same,mass density,"373 K, 49900 kPa",672 ± 2.2 kg/m3
same,mass density,"373 K, 59900 kPa",679.6 ± 2.2 kg/m3
same,mass density,"373 K, 69900 kPa",686.7 ± 2.2 kg/m3
same,mass density,"373 K, 79900 kPa",693.3 ± 2.3 kg/m3
same,mass density,"373 K, 89900 kPa",699.4 ± 2.3 kg/m3
same,mass density,"373 K, 99900 kPa",705.2 ± 2.4 kg/m3
same,mass density,"373 K, 109900 kPa",710.7 ± 2.4 kg/m3
same,mass density,"373 K, 119900 kPa",716 ± 2.5 kg/m3
same,mass density,"373 K, 129900 kPa",720.9 ± 2.5 kg/m3
same,mass density,"373 K, 134900 kPa",723.3 ± 2.5 kg/m3
same,mass density,"373 K, 137400 kPa",724.5 ± 2.5 kg/m3
